{"source": "paper PMC8466554", "about": "“Heteroaryl-Ethylenes as New Lead Compounds in the Fight against High Priority Bacterial Strains” (Antibiotics, 2021)", "key": {"[1]": {"test_system": "S.aureus Mu50-VISA", "test": "MIC and MBC microtiter plate assay", "type": "cell-based, Staphylococcus aureus"}, "[2]": {"test_system": "S.aureus USA300-CAMRSA", "test": "MIC and MBC microtiter plate assay", "type": "cell-based, Staphylococcus aureus"}, "[3]": {"test_system": "S.aureus ATCC29213-MSSA", "test": "MIC and MBC microtiter plate assay", "type": "cell-based, Staphylococcus aureus"}, "[4]": {"test_system": "S.aureus ATCC12598-MSSA", "test": "MIC and MBC microtiter plate assay, also with different inocula", "type": "cell-based, Staphylococcus aureus"}, "[5]": {"test_system": "E. faecalis ATCC51299-VRE", "test": "MIC and MBC microtiter plate assay, also with different inocula", "type": "cell-based"}, "[6]": {"test_system": "E. faecalis ATCC29212-VSE", "test": "MIC and MBC microtiter plate assay", "type": "cell-based"}, "[7]": {"test_system": "A. baumannii ATCC17978", "test": "MIC and MBC microtiter plate assay, also with different inocula", "type": "cell-based, Acinetobacter baumannii"}, "[8]": {"test_system": "E. coli ATCC25922", "test": "MIC and MBC microtiter plate assay, also with different inocula", "type": "cell-based, Escherichia coli"}, "[9]": {"test_system": "P. aeruginosa ATCC27853", "test": "MIC microtiter plate assay", "type": "cell-based, Pseudomonas aeruginosa"}, "[10]": {"test_system": "K. pneumoniae ATCC700603", "test": "MIC microtiter plate assay", "type": "cell-based, Klebsiella pneumoniae"}, "[11]": {"test_system": "K. pneumoniae ATCC BAA-2814", "test": "MIC microtiter plate assay", "type": "cell-based, Klebsiella pneumoniae", "details": "K. pneumoniae ATCC BAA-2814 (MDR strain)"}, "[12]": {"test_system": "Gram-positive control strains", "test": "MIC and MBC, summary over Gram-positive control strains", "type": "cell-based, S. aureus and Enterococcus spp."}, "[13]": {"test_system": "Gram-positive and Gram-negative ATCC strains", "test": "MIC and MBC, summary over Gram-positive and Gram-negative strains", "type": "cell-based", "details": "bactericidal effect defined as MBC/MIC ≤ 4"}, "[14]": {"test_system": "CaCo-2 cells", "test": "MTT cytotoxicity assay", "type": "cell-based, human", "details": "24 h of incubation relative to untreated controls", "description": "To evaluate the biological activity of the PBn series, compounds were screened for toxicity against the colon-rectal cancer cell line CaCo-2 (ATCC HTB-37). These human cancer cells were treated with solutions of the compounds at decreasing concentrations, starting from 100 μM up to 0.01 μM. The reference compound used for these assays was 5-Fluorouracil (5-Fu), a pyrimidine analogue belonging to the family of antimetabolite. […] Briefly, human colorectal adenocarcinoma cells (CaCo-2 HTB-37^TM Colorectal Adenocarcinoma Human, American Type Culture Collection, Manassas, VA, USA) were grown in Dulbecco’s MEM (DMEM) with 10% heat-inactivated fetal bovine serum, 2 mM L-Alanyl-L-Glutamine, penicillin-streptomycin (50 units-50 μg for mL) and incubated at 37 °C in a humidified atmosphere of 5% CO2, 95% air. CaCo-2 cells were plated in 96 well pates and incubated at 37 °C. The PBn series compounds and 5-FU were prepared as a 1 mM solution in 10 mL with 0.01% DMSO. Then, 24 h after plating, cells were treated with 20 μL of each solution. Untreated cells were used as controls. […] The results were read on a multiwell scanning spectrophotometer (AF2200 plate reader, Eppendorf, Milan, Italy), using a wavelength of 569 nm."}, "[15]": {"details": "S.aureus ATCC12598-MSSA, value in brackets"}, "[16]": {"details": "E. faecalis ATCC51299-VRE, value in brackets"}, "[17]": {"details": "A. baumannii ATCC17978, value in brackets"}}, "note": "pIC50: −log10 of the molar value. Values joined by “and” are separate entries in the source; they are usually repeats but may differ in a detail not shown here. Equal entries are not always repeated. Where two headings read alike, the source gives them in different places."}
{"compound": "CN(C)c1ccc(/C=C/c2cccc(/C=C/c3ccc(N(C)C)cc3)[n+]2C)cc1.[I-]", "note": "[PB4]", "values": [{"measurement": "MBC", "setting": "[1]", "value": 2, "unit": "µg/mL"}, {"measurement": "MIC", "setting": "[1]", "value": 0.25, "unit": "µg/mL"}, {"measurement": "MBC", "setting": "[1]; value in brackets", "value": 3.91, "unit": "µM"}, {"measurement": "MIC", "setting": "[1]; value in brackets", "value": 0.49, "unit": "µM"}, {"measurement": "MBC", "setting": "[2]", "value": 2, "unit": "µg/mL"}, {"measurement": "MIC", "setting": "[2]", "value": 0.25, "unit": "µg/mL"}, {"measurement": "MBC", "setting": "[2]; value in brackets", "value": 3.91, "unit": "µM"}, {"measurement": "MIC", "setting": "[2]; value in brackets", "value": 0.49, "unit": "µM"}, {"measurement": "MBC", "setting": "[3]", "value": 2, "unit": "µg/mL"}, {"measurement": "MIC", "setting": "[3]", "value": 0.25, "unit": "µg/mL"}, {"measurement": "MBC", "setting": "[3]; value in brackets", "value": 3.91, "unit": "µM"}, {"measurement": "MIC", "setting": "[3]; value in brackets", "value": 0.49, "unit": "µM"}, {"measurement": "MIC", "setting": "[4]; S. aureus ATCC12598, inoculum 1.00101 (1 × 10^1 CFU/mL)", "value": "< 0.015 mg/L and < 0.03 μM"}, {"measurement": "MIC", "setting": "[4]; S. aureus ATCC12598, inoculum 1.00102 (1 × 10^2 CFU/mL)", "value": "< 0.015 mg/L and < 0.03 μM"}, {"measurement": "MIC", "setting": "[4]; S. aureus ATCC12598, inoculum 1.00103 (1 × 10^3 CFU/mL)", "value": "< 0.03 μM and < 0.015 mg/L"}, {"measurement": "MIC", "setting": "[4]; S. aureus ATCC12598, inoculum 1.00104 (1 × 10^4 CFU/mL)", "value": "0.03 mg/L and 0.06 μM"}, {"measurement": "MIC", "setting": "[4]; S. aureus ATCC12598, inoculum 1.00105 (1 × 10^5 CFU/mL, standard)", "value": "0.25 mg/L and 0.49 μM"}, {"measurement": "MIC", "setting": "[4]; S. aureus ATCC12598, inoculum 1.00106 (1 × 10^6 CFU/mL)", "value": "0.25 mg/L and 0.49 μM"}, {"measurement": "MIC", "setting": "[4]; S. aureus ATCC12598, inoculum 1.00107 (1 × 10^7 CFU/mL)", "value": "4 mg/L and 7.82 μM"}, {"measurement": "MBC", "setting": "[4]; S.aureus ATCC12598-MSSA", "value": 2, "unit": "µg/mL"}, {"measurement": "MIC", "setting": "[4]; S.aureus ATCC12598-MSSA", "value": 0.25, "unit": "mg/L"}, {"measurement": "MBC", "setting": "[4]; [15]", "value": 3.91, "unit": "µM"}, {"measurement": "MIC", "setting": "[4]; [15]", "value": 0.49, "unit": "µM"}, {"measurement": "MBC", "setting": "[5]; E. faecalis ATCC51299-VRE", "value": 4, "unit": "µg/mL"}, {"measurement": "MIC", "setting": "[5]; E. faecalis ATCC51299-VRE", "value": 0.5, "unit": "mg/L"}, {"measurement": "MBC", "setting": "[5]; [16]", "value": 7.82, "unit": "µM"}, {"measurement": "MIC", "setting": "[5]; [16]", "value": 0.98, "unit": "µM"}, {"measurement": "MIC", "setting": "[5]; E. faecalis ATCC51299, inoculum 1.00101 (1 × 10^1 CFU/mL)", "value": "0.06 mg/L and 0.12 μM"}, {"measurement": "MIC", "setting": "[5]; E. faecalis ATCC51299, inoculum 1.00102 (1 × 10^2 CFU/mL)", "value": 0.25, "unit": "mg/L"}, {"measurement": "MIC", "setting": "[5]; E. faecalis ATCC51299, inoculum 1.00103 (1 × 10^3 CFU/mL)", "value": 0.12, "unit": "mg/L"}, {"measurement": "MIC", "setting": "[5]; E. faecalis ATCC51299, inoculum 1.00104 (1 × 10^4 CFU/mL)", "value": "0.12 mg/L and 0.24 μM"}, {"measurement": "MIC", "setting": "[5]; E. faecalis ATCC51299, inoculum 1.00105 (1 × 10^5 CFU/mL, standard)", "value": "0.5 mg/L and 0.98 μM"}, {"measurement": "MIC", "setting": "[5]; E. faecalis ATCC51299, inoculum 1.00106 (1 × 10^6 CFU/mL)", "value": "0.5 mg/L and 0.98 μM"}, {"measurement": "MIC", "setting": "[5]; E. faecalis ATCC51299, inoculum 1.00107 (1 × 10^7 CFU/mL)", "value": "0.5 mg/L and 0.98 μM"}, {"measurement": "MBC", "setting": "[6]", "value": 4, "unit": "µg/mL"}, {"measurement": "MIC", "setting": "[6]", "value": 0.5, "unit": "µg/mL"}, {"measurement": "MBC", "setting": "[6]; value in brackets", "value": 7.82, "unit": "µM"}, {"measurement": "MIC", "setting": "[6]; value in brackets", "value": 0.98, "unit": "µM"}, {"measurement": "MBC", "setting": "[7]; A. baumannii ATCC17978", "value": 0.5, "unit": "µg/mL"}, {"measurement": "MIC", "setting": "[7]; A. baumannii ATCC17978", "value": 0.25, "unit": "mg/L"}, {"measurement": "MIC", "setting": "[7]; A. baumannii ATCC 17978, inoculum 1.00101 (1 × 10^1 CFU/mL)", "value": "< 0.25 mg/L and < 0.49 μM"}, {"measurement": "MIC", "setting": "[7]; A. baumannii ATCC 17978, inoculum 1.00102 (1 × 10^2 CFU/mL)", "value": "< 0.25 mg/L and < 0.49 μM"}, {"measurement": "MIC", "setting": "[7]; A. baumannii ATCC 17978, inoculum 1.00103 (1 × 10^3 CFU/mL)", "value": "< 0.49 μM and < 0.25 mg/L"}, {"measurement": "MIC", "setting": "[7]; A. baumannii ATCC 17978, inoculum 1.00104 (1 × 10^4 CFU/mL)", "value": "0.25 mg/L and 0.49 μM"}, {"measurement": "MIC", "setting": "[7]; A. baumannii ATCC 17978, inoculum 1.00105 (1 × 10^5 CFU/mL)", "value": "0.25 mg/L and 0.49 μM"}, {"measurement": "MIC", "setting": "[7]; A. baumannii ATCC 17978, inoculum 1.00106 (1 × 10^6 CFU/mL)", "value": 0.49, "unit": "µM"}, {"measurement": "MIC", "setting": "[7]; A. baumannii ATCC 17978, inoculum 1.00107 (1 × 10^7 CFU/mL)", "value": "1 mg/L and 1.96 μM"}, {"measurement": "MBC", "setting": "[7]; [17]", "value": 0.98, "unit": "µM"}, {"measurement": "MIC", "setting": "[7]; [17]", "value": 0.49, "unit": "µM"}, {"measurement": "MBC", "setting": "[8]", "value": 4, "unit": "µg/mL"}, {"measurement": "MIC", "setting": "[8]", "value": 1, "unit": "mg/L"}, {"measurement": "MIC", "setting": "[8]; inoculum 1.00101 (1 × 10^1 CFU/mL)", "value": "0.5 mg/L and 0.98 μM"}, {"measurement": "MIC", "setting": "[8]; inoculum 1.00102 (1 × 10^2 CFU/mL)", "value": "0.5 mg/L and 0.98 μM"}, {"measurement": "MIC", "setting": "[8]; inoculum 1.00103 (1 × 10^3 CFU/mL)", "value": "0.5 mg/L and 0.98 μM"}, {"measurement": "MIC", "setting": "[8]; inoculum 1.00104 (1 × 10^4 CFU/mL)", "value": "0.5 mg/L and 0.98 μM"}, {"measurement": "MIC", "setting": "[8]; inoculum 1.00105 (1 × 10^5 CFU/mL)", "value": "1 mg/L and 1.96 μM"}, {"measurement": "MIC", "setting": "[8]; inoculum 1.00106 (1 × 10^6 CFU/mL)", "value": "1 mg/L and 1.96 μM"}, {"measurement": "MIC", "setting": "[8]; inoculum 1.00107 (1 × 10^7 CFU/mL)", "value": "2 mg/L and 3.91 μM"}, {"measurement": "MBC", "setting": "[8]; value in brackets", "value": 7.82, "unit": "µM"}, {"measurement": "MIC", "setting": "[8]; value in brackets", "value": 1.96, "unit": "µM"}, {"measurement": "MIC", "setting": "[9]", "value": 64, "unit": "µg/mL"}, {"measurement": "MIC", "setting": "[9]; value in brackets", "value": 125.14, "unit": "µM"}, {"measurement": "MIC", "setting": "[10]", "value": "> 128", "unit": "µg/mL"}, {"measurement": "MIC", "setting": "[10]; value in brackets", "value": "> 250.27", "unit": "µM"}, {"measurement": "MIC", "setting": "[11]", "value": 64, "unit": "µg/mL"}, {"measurement": "MIC", "setting": "[11]; value in brackets", "value": 125.14, "unit": "µM"}, {"measurement": "comparison between MIC and MBC values", "setting": "[12]; Gram-positive control strains", "value": "three values of difference"}, {"measurement": "MIC", "setting": "[12]; over the Gram-positive control strains (S. aureus and Enterococcus spp.)", "value": "≤ 16", "unit": "µg/mL"}, {"measurement": "MBC/MIC", "setting": "[13]", "value": "≤ 4"}, {"measurement": "pIC50", "setting": "[14]", "value": "6.50 and 6.49"}]}
